Measured values from ChEMBL document CHEMBL1148982, “Novel cytotoxic thiodiketopiperazine derivatives from a Tilachlidium sp” (2004).

Tested on: P388
Assay: Cytotoxicity against mouse P388 cells after 1 to 11 days by MTT assay
Format: functional
Conditions: read-out: ID50 (the source's name)

Compound	IC50 [nM]
CN1C(=O)[C@]23SSS[C@]1(CO)C(=O)N2[C@H]1Nc2ccccc2[C@@]1(c1c[nH]c2ccccc12)[C@@H]3O	250
CS[C@@]1(CO)C(=O)N2[C@H]3Nc4ccccc4[C@@]3(c3c[nH]c4ccccc34)[C@H](O)[C@]2(SC)C(=O)N1C [T988 B]	2180
CN1C(=O)[C@]23SS[C@]1(CO)C(=O)N2[C@H]1Nc2ccccc2[C@@]1(c1c[nH]c2ccccc12)[C@@H]3O [T988 C]	560
